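Assay format: 96-well plates, 48-hour exposure. At the GI50, growth is halved. TGI: concentration producing complete growth inhibition.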
Legend:
Experiment in all cases: inhibition of tumour cell growth, NCI panel, 48 h
HCT-116 colon = tested on: HCT-116 colon
RXF 393 renal = tested on: RXF 393 renal
SR leukemia = tested on: SR leukemia
RPMI-8226 leukemia = tested on: RPMI-8226 leukemia
HS 578T breast = tested on: HS 578T breast
OVCAR-8 ovarian = tested on: OVCAR-8 ovarian
SK-MEL-5 melanoma = tested on: SK-MEL-5 melanoma
SNB-75 CNS = tested on: SNB-75 CNS
NCI-H522 lung = tested on: NCI-H522 lung
SF-539 CNS = tested on: SF-539 CNS

Compound	GI50 (HCT-116 colon) [µM]	TGI (HCT-116 colon) [µM]	GI50 (RXF 393 renal) [µM]	TGI (RXF 393 renal) [µM]	GI50 (SR leukemia) [µM]	TGI (SR leukemia) [µM]	GI50 (RPMI-8226 leukemia) [µM]	TGI (RPMI-8226 leukemia) [µM]	GI50 (HS 578T breast) [µM]	TGI (HS 578T breast) [µM]	GI50 (OVCAR-8 ovarian) [µM]	TGI (OVCAR-8 ovarian) [µM]	GI50 (SK-MEL-5 melanoma) [µM]	TGI (SK-MEL-5 melanoma) [µM]	GI50 (SNB-75 CNS) [µM]	TGI (SNB-75 CNS) [µM]	GI50 (NCI-H522 lung) [µM]	TGI (NCI-H522 lung) [µM]	GI50 (SF-539 CNS) [µM]	TGI (SF-539 CNS) [µM]
Cn1cc(C2=C(c3cccc(N)c3)C(=O)NC2=O)c2ccccc21	7.94	> 25	3.63	> 17.7	9.03	24.8	> 21.4	> 25	1.34	> 25	17.4	> 25	9.66	> 25	0.0779	> 25	15.5	> 25	4.07	> 25
Cc1cc(Cl)cc2c(N=Nc3ccccc3[N+](=O)[O-])c(O)[nH]c12	–	> 100	–	> 100	–	82.3	–	> 100	–	> 100	–	–	–	> 100	–	> 100	–	> 100	–	> 100
CCCCCCc1cc2cc(-c3nc4ccccc4[nH]3)c(=Nc3ccccc3C)oc2cc1O	1.83	3.63	1.85	3.95	1.86	4.47	2.47	7.86	2.37	6.71	2.26	6.05	2	4.96	1.41	3.49	2.11	5.11	1.83	3.75
Cc1nc(-c2ccccc2)c(Cc2ccccc2O)c(=O)[nH]1	–	> 100	–	> 100	–	> 100	–	> 100	–	> 100	–	> 100	–	> 100	–	97.9	–	> 100	–	> 100
COc1cc(-n2cc(-c3ccc(F)cc3)nc2SCc2ccccc2)cc(OC)c1OC	18.8	> 100	19.4	> 100	> 100	> 100	> 100	> 100	> 100	> 100	> 100	> 100	54.8	> 100	> 100	> 100	89.8	> 100	> 100	> 100
COc1cc2cc(C(=O)CCC(=O)O)sc2cc1OC	> 100	> 100	33.4	> 100	3.53	> 100	> 100	> 100	> 100	> 100	> 100	> 100	> 100	> 100	12.7	> 100	> 100	> 100	16.5	> 100
COC(=O)C1=C(C)NC(C)=C(C(=O)OC)C1/C=C(\Cl)c1ccc(Cl)c(Cl)c1	12.2	24.6	13.4	27.2	3.3	22.4	1.8	13.7	12.2	33.4	36.1	> 100	15.2	28.5	8.25	22.9	16.6	32.4	17.1	33
O=c1ccc(N=Nc2ccc([N+](=O)[O-])cc2)ccc1O	4.19	> 100	7.37	> 100	4.13	> 100	3.15	> 100	4.27	> 100	3.97	> 100	6.55	> 100	10.8	> 100	3.42	28.3	4.38	> 100
Oc1ccc(CN2CCC(N3CCOCC3)CC2)c2cccnc12	34.4	> 100	23	95.5	34	> 100	32.7	> 100	62.1	> 100	34.3	> 100	23.2	57	11.9	> 100	26.5	61.2	24.2	> 100
N#Cc1cccc(OCc2nc(N)nc(N)c2-c2ccc(Cl)c(Cl)c2)c1	0.472	> 100	2.13	> 100	2.39	> 100	4.65	> 100	4.41	> 100	0.765	> 100	1.29	> 100	5.67	> 100	5.62	> 100	1.43	65.4
O=C(Nc1ccc(F)cc1)Nc1ccccc1CNc1nc(Nc2ccc(OCCN3CCCC3)cc2)ncc1Cl	–	–	0.895	1.88	1.81	50	1.4	3.72	0.99	2.58	1.83	12.2	1.55	4.98	0.677	1.35	2.26	13.4	0.831	1.57
Clc1cc2c(cc1Cl)Oc1cc(Cl)c(Cl)cc1O2	> 0.625	> 0.625	> 0.625	> 0.625	> 0.625	> 0.625	> 0.625	> 0.625	> 0.625	> 0.625	> 0.625	> 0.625	> 0.625	> 0.625	0.304	> 0.625	> 0.625	> 0.625	> 0.625	> 0.625
Nc1ccccc1-c1ccc([N+](=O)[O-])cc1	3.4	> 100	55.9	> 100	29	> 100	4.95	> 100	50.8	> 100	63.4	> 100	2.58	> 100	> 100	> 100	11.2	> 100	3.92	63
CC/C(=C(/c1ccc(OCCN(C)C)cc1)c1ccc(OC(=O)CCC(=O)c2c(C)[nH]c(/C=C3\N=C(c4ccc[nH]4)C=C3OC)c2C)cc1)c1ccccc1	0.792	3.26	2.34	12.6	0.694	5.38	1.57	5.58	1.15	4.72	2.73	10.3	1.31	2.62	2.45	9.86	1.88	5.38	2.59	9.26
CN(Cc1ccc(Cl)cc1)c1ccc(CO)c(Cl)c1	0.445	8.75	3.57	16.8	13.1	54.8	5.51	> 52.3	12.5	39.8	7.05	27.4	5.42	17.3	7.06	26.4	13.4	31.2	14	28.8
Clc1ccc(/C=C/c2cc(N3CCOCC3)c3cc(Cl)c(Cl)cc3n2)cc1	> 100	> 100	> 100	> 100	14.9	> 61.8	0.311	1.09	> 100	> 100	> 100	> 100	> 100	> 100	> 100	> 100	1.86	> 100	> 100	> 100
CC(C)[C@H]1CC[C@H]2[C@@H](CC[C@H]3[C@](C)(CN)CCC[C@]23C)C1	1.72	3.09	2	3.84	2.65	15.2	2.9	12.2	2.45	6.67	2.61	5.62	4.87	17.3	6.95	21.3	1.91	3.82	1.59	2.95
N#C/C(=N\Nc1ccc(Cl)cc1)C(=O)Nc1cc(-c2ccccc2)nn1-c1ccccc1	2.7	> 100	2.06	6.32	3.59	> 100	1.77	6.67	3	> 100	2.96	> 100	1.63	4.27	–	–	2.38	> 100	3.29	> 100
N=C(N)c1ccc(OCCOCCOc2ccc(C(=N)N)cc2)cc1	> 100	> 100	> 100	> 100	31.7	> 100	68.5	> 100	67.3	> 100	31.4	> 100	33.1	> 100	> 100	> 100	45.5	> 100	35.3	> 100
C/C=C/C/C=C/CCC(=O)[C@H]1O[C@H]1C(N)=O	8.15	22	5.07	19.1	12.6	> 100	6.58	54.2	15.9	> 100	17.7	> 74.3	12.5	25.2	10	25	–	25.6	–	31.8
CCOC(=O)/C(=N\OC)C(O)C(F)(F)F (centres undefined)	–	> 100	–	> 100	–	> 100	–	> 100	–	> 100	–	> 100	–	> 100	–	> 100	–	> 100	–	> 100
Cc1cc(NCCCNc2ccnc3cc(Cl)ccc23)nc(N2CCN(C)CC2)n1	2.22	13	1.35	4.99	1.81	6.41	2.56	7.45	12.4	36.9	7.76	44	1.67	3.24	13	34.4	2.43	11.1	1.84	3.6
Cn1ccnc1C(=O)/C=C/c1ccc(C(=O)Nc2ccc(S(F)(F)(F)(F)F)cc2)cc1	0.854	> 14.3	2.65	13.9	0.391	10.3	0.38	2.68	3.4	> 14.3	2.03	> 14.3	0.603	5.99	0.761	> 14.3	4.69	> 14.3	2.4	6.45
CC(=O)N1N=C(c2ccc(Nc3nc(Nc4ccc(Cl)cc4)nc(Nc4ccc(Cl)cc4)n3)cc2)CC1c1ccc([N+](=O)[O-])cc1 (centres undefined)	3.24	34.8	2.29	9.2	2.66	20.5	3.61	42.4	7.7	97.7	8.54	> 100	3.22	15.8	3.71	> 54.6	6.39	> 100	6	25.5
O=C(Nc1ccccc1)c1nn(-c2cc(S(=O)(=O)O)c([N+](=O)[O-])cc2Cl)[n+](-c2cc(S(=O)(=O)[O-])c([N+](=O)[O-])cc2Cl)n1	–	> 100	–	> 100	–	> 100	–	> 100	–	> 100	–	–	–	> 100	–	> 100	–	> 100	–	> 100
O=C1C2C(C(=O)[N]1[Hg][c]1cccs1)C1(Cl)C(Cl)=C(Cl)C2(Cl)C1(Cl)Cl (centres undefined)	1.25	2.54	1.5	3	0.146	–	1.41	6.38	2.41	11.5	–	–	1.55	3.06	1.37	4.81	0.162	0.432	2.08	4.76
